According to US20250241990A1, “THERAPEUTIC AGENT” (priority 2022, published 2025):

Tested on: E. coli CFT073
Assay: Irf3−/− mice infected with E. coli CFT073 by intravesical instillation; genetic model of acute pyelonephritis and urosepsis
Assay type: in vivo
Details: for bacterial growth in urine: at day 21 and 42; for long term protection against infection and inflammation: daily i.p. treatment for 7 days, follow-up to day 42, FIG. 2; for urine neutrophil numbers: long-term follow-up (day 21 and 42)
Procedure: Irf3^−/− mice were infected with E. coli CFT073 (50 μl of 2.109 cfu/ml) by intravesical instillation. Intraperitoneal treatment was administered daily, starting 6 hours after infection and for 7 days. Mice were treated with recombinant NIpD protein (105 μg in 100 μl) or IL-1RA (Anakinra, 1 mg/kg, 100 μl). Control mice received PBS. Urine sampling for bacterial and neutrophil counts were done on day 1, 3, 5 and 7 in one group of animals (those sacrificed on day 7), and on day 1, 3, 5, 7, 21 and 42 in others.
Animals were sacrificed under anesthesia; kidneys and bladders were asceptically removed and in the case of bladders, macroscopic pathology was documented by photography. Tissues were fixed with 4% paraformaldehyde or frozen for sectioning and RNA extraction. Viable counts in homogenized tissues (Stomacher 80, Seward Medical) were determined on TSA (37° C., overnight). Urine samples were collected prior to and at regular times after infection and quantitatively cultured. Neutrophils in uncentrifuged urine were counted, using a hemocytometer.

Molecule	bacterial growth in urine	long term protection against infection and inflammation	urine neutrophil numbers
IL-1RA: interleukin-1 receptor antagonist (IL-1 RA), anakinra	no bacterial growth in urine	long term protection	low urine neutrophil numbers
NIpD: recombinant NIpD protein; bacterial protein, e.g. from E. coli 83972; may comprise or consist of SEQ ID NO: 1 (protein, listed as Escherichia coli) MSAGSPKFTVRRIAALSLVSLWLAGCSDTSNPPAPVSSVNGNAPANTNSGMLITPPPKMGTTSTAQQPQIQPVQQPQIQATQQPQIQPMQPVAQQPVQMENGRIVYNRQYGNIPKGSYSGSTYTVKKGDTLFYIAWITGNDFRDLAQRNNIQAPYALNVGQTLQVGNASGTPITGGNAITQADAAEQGVVIKPAQNSTVAVASQPTITYSESSGEQSANKMLPNNKPTATTVTAPVTVPTASTTEPIVSSTSTSTPISTWRWPTEGKVIETFGASEGGNKGIDIAGSKGQAIIATADGRVVYAGNALRGYGNLIIIKHNDDYLSAYAHNDTMLVREQQEVKAGQKIATMGSTGTSSTRLHFEIRYKGKSVNPLRYLPQR	no bacterial growth in urine	long term protection	low urine neutrophil numbers
